Test results from US7414068B2, “Benzopyran derivatives substituted with secondary amines including tetrazole, method for the preparation thereof and pharmaceutical compositions containing them” (Dongbu Hannong Chemical Co., Ltd., priority 2002, dated 2008).

Tests used:
RAW 264.7 cells = experiment: Inhibitory effect on NO production (LPS, Griess reagent); type: cell-based, murine; conditions: Mus musculus, RAW264.7, 24 h, Addition 30 μM, LPS 1 μg/ml, read-out: Inihibition (%) of NO production
Experimental: Using RPMI1640 media supplemented with 10% fetal bovine serum (FBS), RAW 264.7 cells (obtained from American Type Culture Collection), a murine macrophage cell line, were cultured at 37° C. in a 5% CO2 incubator. The RAW 264.7 cells were harvested and cell density was adjusted to 5×10^5 cell/ml with a RPMI media supplemented with 0.5% FBS and plated at 5×10^4 cell/well to 96-well plate, which were then cultured for 20 hours in a CO2 incubator. After removal of the media, the cells were pre-treated for 1 hour with fresh media containing 30 μM. The test compounds were dissolved in DMSO and diluted to respective concentration in the media. In order to minimize DMSO effect on the nitric oxide formation by the RAW 264.7 cells in the walls, the media were allowed to contain DMSO at a concentration of 0.1% or less.
After completion of one-hour pre-treatment, Lipopolysaccharide (E. coli serotype 055:B5) was added to activate the cells at a final concentration of 1 μg/ml, which were maintained for 24 hours in a CO2 incubator. As a result of the activation of RAW 264.7 cells with LPS, NO was formed. The NO release into the media was in a form of nitrite (NO2^−) and quantitatively measured using the Griess reagent. A control group was treated only with vehicle instead of test compounds.
The inhibitory effect of the test compounds against NO production were determined as the reduction of NO quantity compared with that of the control group.

isolated rat aorta = experiment: Vasodilating effect on blood vessel excised from rats (methoxamine-constricted aorta); conditions: isolated rat aorta constricted with methoxamine (3 μM); read-out: Concentration for inhibition of constriction induced by methoxamine in rat arota (IC50)
Summary of the method: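 Endothelium-denuded rat thoracic aortic rings (3 mm) in Krebs-Henseleit buffer, 37 °C, carbogen, 2 g resting tension, primed twice with 10^−5 M phenylephrine. After maximal contraction with 3×10^−6 M methoxamine, compounds added cumulatively at 1, 3, 10, 30 μM. IC50 = concentration giving 50% relaxation of maximal constriction, by linear regression.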

[1] = Acute oral toxicity test in rats; conditions: SD, rat, in vivo, single oral dose, suspended in 0.5% methyl cellulose, read-out: lethal dose (LD50) for oral administration
Summary of the method: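 Six-week-old SPF SD rats, two per group, received compounds orally as suspensions in 0.5% methyl cellulose. Endpoints were clinical signs, body weight, mortality, haematology, serum biochemistry and macroscopic necropsy of organs and tissues.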

cortical neuron cells = experiment: Protective effect on iron-induced neuronal cell injury (LDH release); type: cell-based; conditions: FeSO4 50 μM; for protective effect on neuron cell: Inhibition (%, 30 μM compound addition): LDH reduction vs control; for IC50: LDH
Summary of the method: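 Embryonic (day 17–18) cortical neurons cultured 7–9 days, serum lowered to 0.2%, pretreated 30 min with compound (DMSO ≤0.1%), then exposed to 50 μM FeSO4 for 24 h. LDH released to medium measured; protection expressed as LDH reduction versus vehicle control.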

[2] = test system: isolated ischemic rat heart; experiment: Cardioprotective effect in ischemic heart models of rats (Langendorff); conditions: 10 μM; for EDP (mmHg): after 30 min global ischemia and reperfusion; for LDH (u/g): reperfusion LDH release; for LVDP X HR (%): reperfusion, % of pre-treatment DP; for TTC: time to contracture during global ischemia
Experimental: Male rats (300˜450 g, obtained form the experimental animal team of the Korea Research Institute of Chemical Technology) were anaesthetized by the intra-peritoneal injection of sodium pentobarbital at a dose of 100 mg/kg. Heparin (1,000 U/kg) was injected to the tail vein and then the heart was enucleated. Particularly, cannula (PE 240) was inserted to the organ. Rats were mechanically ventilated with a rodent ventilator, in situ aorta cannula was inserted into their aorta. In retorograde perfusion, their hearts were enucleated, then just hung onto Langendorff Apparatus. Tissue attached at the heart was removed. Heart was perfused in oxygenated modified Krebs-Henseleit bicarbonate buffer (composition<mM/L>116 NaCl, 4.7 KCl, 1.1 MgSO4, 1.17 KH2PO4, 24.9 NaHCO3, 2.52 CaCl2, 8.32 Glucose, 2.0 Pyruvate) at a constant perfusion pressure (85 mmHg). A metal cannula attached to latex balloon filled with solvent (ethanol: water=1:1 (v/v)) was placed in the left ventricle through pulmonary vein and connected to a isovolumetric pressure transducer (H.S.E., Germany) for measurement of left ventricular pressure (LVP). The hearts were allowed to equilibrate for 15 min, at which time left ventricular end-diastolic pressure (EDP) was adjusted to 5 mmHg and this balloon volume was maintained throughout the experiment.
Baseline cardiac contractile function, heart rate (HR), and coronary flow (CF) were measured. Cardiac contractile function was calculated by […], yielding LVDP (left ventricular developed pressure). Double product RPP (rate-pressure product) (DP), another important parameter for indirectly assessing cardiac performance in Langendorff heart impossible to measure cardiac output was calculated by multiplying HR by LVDP.
Throughout the experiment, total coronary blood flow was measured by the use of coronary flow probe (diameter: 1.0 mm) installed in aortic cannula with electromagnetic flowmeter. Temperature of heart was steadily maintained by immersing the heart at 37° C. in physiological saline solution to which 95% O2/5% CO2 was constantly supplied. After stabilization for 15 min, the hearts were pre-treated for 10 min in vehicle (0.04% DMSO) or mixture containing the compound of the present invention or control material. Thereafter, cardiac contractile function, HR and CF were repeatedly measured. Global ischemia was induced by completely shutting off the perfusate for 30 min. Severity of ischemia was determined as the time to contracture (TTC, min) during global ischemia in which the first 5 mmHg increase in EDP was observed. Then, the hearts were reperfused and, 30 min later, contractile functions (LVDP, HR and CF) was repeatedly measured. After reperfusion was accomplished for 30 min, LDH (lactate dehydrogenase) was measured as a sensitive index for loss of cell viability with a kit.

brain homogenate = experiment: Inhibitory effect against lipid peroxidation by iron (MDA quantification); type: biochemical, rat; conditions: 100 μM compound, FeCl2 400 μM, 37° C. 30 min
Experimental: The rat brain was homogenized in a Krebs buffer (15 mM HEPES, 10 mM glucose, 140 mM NaCl, 3.6 mM KCl, 1.5 mM CaCl2, 1.4 mM KH2PO4, 0.7 mM MgCl2, PH 7.4) and the supernatant separated by centrifugation at 12,000 rpm for 10 min was used for further experiments. FeCl2 was added for the final concentration to be 400 μM. Then the brain homogenate was allowed to stand at 37° C. for 30 min for the facilitation of oxidation. Each of the test compounds was added at a concentration of 100 μM. For control group, only vehicle was applied.
Iron facilitates the oxidation of the said brain homogenate to produce malondialdehyde (MDA), lipid peroxidation product. Thus, the lipid peroxidation was determined by MDA quantification. The inhibitory effect against lipid peroxidation of the test compounds was evaluated by calculating MDA reduction rate of the test compounds compared with that of the control group.
Typically, the MDA quantification is achieved by reacting samples with 2-thiobarbituric acid (TBA) and measuring the absorbance at 530 nm. However, this method is unsuitable to treat samples on a large scale because of a boiling step. Thus, in this experiment, N-methyl-2-phenylindole was used instead of TBA.

Compound | inhibition at 30 µM (RAW 264.7 cells) [%] | IC50 (isolated rat aorta) [µM] | LD50 [1] [mg/kg] | protective effect on neuron cell: Inhibition (%, 30 μM compound addition) (cortical neuron cells; 24 hours) [%] | IC50 (cortical neuron cells; Cortical neurone, 24 h) [µM] | IC50 (cortical neuron cells; 24 hours) [µM] | EDP (mmHg) [2] [mmHg] | LDH (u/g) [2] [u/g] | LVDP X HR (%) [2] [%] | TTC [2] [min] | inhibitory effect against lipid peroxidation induced by iron (%, 100 μM) (brain homogenate) [%]
COC(=O)c1cccc(N(Cc2nnn(C)n2)[C@H]2c3cc([N+](=O)[O-])ccc3O[C@](C)(C(OC)OC)[C@@H]2O)c1 [Example 58, (2S,3R,4S)-6-nitro-4-[N-(3-methoxycarbonylphenyl)-N-(2-methyl-2H-tetrazol-5-ylmethyl)amino]-3-hydroxy-2-methyl-2-dimethoxymethyl-3,4-dihydro-2H-1-benzopyran] | > 75 |  |  |  |  |  |  |  |  |  | 
COC(OC)[C@@]1(C)Oc2ccc(N)cc2[C@H](N(Cc2nnn(C)n2)c2ccc(OC(F)(F)F)cc2)[C@H]1O [Example 32, (2S,3R,4S)-6-amino-4-[N-(4-trifluoromethoxyphenyl)-N-(2-methyl-2H-tetrazol-5-ylmethyl)amino]-3-hydroxy-2-methyl-2-dimethoxymethyl-3,4-dihydro-2H-1-benzopyran] |  | > 30 | > 2000 | 108 | < 2 | 1.6 | 17.0 | 15.7 | 64.7 | 27.9 | 89
COC(OC)[C@@]1(C)Oc2ccc([N+](=O)[O-])cc2[C@H](N(Cc2nnn(C)n2)c2ccccc2Cl)[C@H]1O [Example 29, (2S,3R,4S)-6-nitro-4-[N-(2-chlorophenyl)-N-(2-methyl-2H-tetrazol-5-ylmethyl)amino]-3-hydroxy-2-methyl-2-dimethoxymethyl-3,4-dihydro-2H-1-benzopyran] | > 75 |  |  |  |  |  |  |  |  |  | 
COC(=O)c1ccc(C)c(N(Cc2nnn(C)n2)[C@H]2c3cc([N+](=O)[O-])ccc3O[C@](C)(C(OC)OC)[C@@H]2O)c1 [Example 68, (2S,3R,4S)-6-nitro-4-[N-(2-methyl-5-methoxycarbonylphenyl)-N-(2-methyl-2H-tetrazol-5-ylmethyl)amino]-3-hydroxy-2-methyl-2-dimethoxymethyl-3,4-dihydro-2H-1-benzopyran] | 64 |  |  |  |  |  |  |  |  |  | 
COC(OC)[C@@]1(C)Oc2ccc(N)cc2[C@H](N(Cc2nnn(C)n2)c2ccccc2O)[C@H]1O [Example 61, (2S,3R,4S)-6-amino-4-[N-(2-hydroxyphenyl)-N-(2-methyl-2H-tetrazol-5-ylmethyl)amino]-3-hydroxy-2-methyl-2-dimethoxymethyl-3,4-dihydro-2H-1-benzopyran] |  | > 30 | > 2000 | 89 | < 2 | 1.2 | 23.0 | 22.4 | 52.7 | 20.0 | 87
COC(OC)[C@@]1(C)Oc2ccc([N+](=O)[O-])cc2[C@H](N(Cc2nnn(C)n2)c2cc(C)ccc2O)[C@H]1O [Example 70, (2S,3R,4S)-6-nitro-4-[N-(2-hydroxy-5-methylphenyl)-N-(2-methyl-2H-tetrazol-5-ylmethyl)amino]-3-hydroxy-2-methyl-2-dimethoxymethyl-3,4-dihydro-2H-1-benzopyran] | > 75 | > 30 | > 2000 | 85 | < 2 | 1.4 | 37.0 | 18.4 | 31.9 | 22.0 | 
COC(OC)[C@@]1(C)Oc2ccc(N)cc2[C@@H](N(Cc2nnnn2C)c2ccc(Cl)cc2)[C@@H]1O [Example 17, (2S,3S,4R)-6-amino-4-[N-(4-chlorophenyl)-N-(1-methyl-1H-tetrazol-5-ylmethyl)amino]-3-hydroxy-2-methyl-2-dimethoxymethyl-3,4-dihydro-2H-1-benzopyran] |  | > 30 | > 2000 | 110 | < 2 | 2 |  |  |  |  | 87
COC(OC)[C@@]1(C)Oc2ccc([N+](=O)[O-])cc2[C@H](N(Cc2nnn(C)n2)c2c(C)cccc2C)[C@H]1O [Example 47, (2S,3R,4S)-6-nitro-4-[N-(2,6-dimethylphenyl)-N-(2-methyl-2H-tetrazol-5-ylmethyl)amino]-3-hydroxy-2-methyl-2-dimethoxymethyl-3,4-dihydro-2H-1-benzopyran] | 62 |  |  |  |  |  |  |  |  |  | 
COC(OC)[C@@]1(C)Oc2ccc([N+](=O)[O-])cc2[C@H](N(Cc2nnn(C)n2)c2ccccc2C(C)C)[C@H]1O [Example 51, (2S,3R,4S)-6-nitro-4-[N-(2-isopropylphenyl)-N-(2-methyl-2H-tetrazol-5-ylmethyl)amino]-3-hydroxy-2-methyl-2-dimethoxymethyl-3,4-dihydro-2H-1-benzopyran] | > 90 |  |  |  |  |  |  |  |  |  | 
COC(OC)[C@@]1(C)Oc2ccc([N+](=O)[O-])cc2[C@H](N(Cc2nnn(C)n2)c2ccc(C)cc2C)[C@H]1O [Example 45, (2S,3R,4S)-6-nitro-4-[N-(2,4-dimethylphenyl)-N-(2-methyl-2H-tetrazol-5-ylmethyl)amino]-3-hydroxy-2-methyl-2-dimethoxymethyl-3,4-dihydro-2H-1-benzopyran] | > 75 |  |  |  |  |  |  |  |  |  | 
